# Results: paper PMC8036666, “Biological and Physico-Chemical Characteristics of Arginine-Rich Peptide Gemini Surfactants with Lysine and Cystine Spacers” (International Journal of Molecular Sciences, 2021)
# Several values for one entry are separate records, joined by “and”; a condition that tells them apart may be missing. Equal values may be shown once. Where a SMILES comes first, the peptide text is derived from it. Side-chain parts run from the residue outwards. The star is where a group is joined. Myristoyl = CCCCCCCCCCCCCC(=O)*; Lauroyl = CCCCCCCCCCCC(=O)*
# Legend:
# [1] = Critical aggregation concentration by surface tension (Du Noüy ring, K100 tensiometer); type: physicochemical; conditions: unbuffered aqueous solution, 298 K
# Protocol: The identity of the purified peptides was confirmed with electrospray ionization mass spectrometry (ESI-MS) in positive ion mode. Results of MS analyses and net charge are attached in Supplementary Materials (Table S1). Peptides’ hydrophobicity was evaluated by analytical reversed-phase high-performance liquid chromatography (RP-HPLC). The critical aggregation concentrations (CACs) of the lipopeptides were determined in unbuffered aqueous solution at 298 K by measuring the surface tension as a function of lipopeptide concentration. The measurements were carried out by the Du Noüy ring method on a K100 tensiometer. The surface tension data were plotted against the logarithm of lipopeptide concentration. CAC was found as the intersection of two lines being linear regression of data below and above CAC.
# The critical aggregation concentration (CAC) values were determined fully automatically using a K100 tensiometer (KRUSS, Hamburg, Germany) equipped with two micro dosimeters by measuring the surface tension vs. lipopeptide concentration. The measurements were performed in unbuffered aqueous solution at 298 K using the Du Noüy ring method. The accuracy of the surface tension measurements was 0.1 mN/m. The critical aggregation concentration (CAC) was defined as the intersection of two lines fitted to the experimental data collected before and after the inflection point.
# [2] = test system: human red blood cells (hRBCs); test: Hemolysis assay; type: cell-based; conditions: red cells of human, 1 h
# Protocol: The hemolysis assay was performed by using the method reported previously. Fresh human red blood cells (hRBCs) with anticoagulant (EDTA) were rinsed three times with a PBS by centrifugation at 800× g for 10 min and diluted with PBS. The compounds were serially diluted on a 96-well microtiter polystyrene plate, and hRBCs were added up to a final volume of 100 μL. The compound concentration ranged between 0.5 and 256 μg/mL and the final hRBCs concentration was 4% (v/v). Controls for zero (blank) and 100% hemolysis consisted of hRBCs suspended in PBS and 1% of Triton-X 100 (Carl Roth GmbH, Karlsruhe, Germany), respectively. The plate was incubated for 1 h at 37 °C and then centrifuged (800× g, 10 min, 4 °C). Subsequently, the supernatant was […] to new microtiter plates, and the absorbance at 540 nm was measured (Multiskan GO Microplate Spectrophotometer, Thermo Fisher Scientific, Vantaa, Finland). All experiments were conducted in triplicate. HC50 was calculated using an ic50.tk tool. The protocol of the study was approved by the local Bioethics Committee at the Medical University of Gdańsk (NKBBN/262/2019, approval date: 10 June 2019).
# [3] = test system: HaCaT cells; type: cell-based, human; conditions: 24 h
# Protocol: Cells were trypsinized, and the medium was renewed 2–3 times per week. The cytotoxicity of compounds was assessed by the determination of cell metabolic activity by colorimetric CellTilter 96® Aqueous One Solution Cell Proliferation Assay (Promega, Madison, WI, USA), according to the manufacturer’s instructions. […] Every compound was medium-soluble in 37 °C; thus, the control cells were cultured with the medium. Serial dilutions of the tested compounds were always prepared prior to use. Cells were incubated with drugs for 24 h, and then, 20 μL of the CellTiter 96®AqueousOne Solution Reagent was added to each well containing cells maintained in 100 μL of culture medium.
# [4] = test system: Candida albicans ATCC 10231; type: cell-based; conditions: ATCC 10231, 24 h
# [5] = test system: Candida glabrata ATCC 15126; type: cell-based; conditions: ATCC 15126, 24 h
# [6] = test system: Enterococcus faecium ATCC 700221; type: cell-based; conditions: ATCC 700221, 24 h
# Outline: (§1)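 Adherent bacterial biofilms (24 h, 37 °C, MHB) received compound at 1–512 μg/mL for 24 h; resazurin reduction ≤10 ± 0.5% versus controls defined MBEC. Done in triplicate.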
# [7] = test system: Klebsiella aerogenes ATCC 13048; type: cell-based; conditions: ATCC 13048, 24 h
# Outline: as §1
# [8] = test system: Klebsiella pneumoniae ATCC 700603; type: cell-based; conditions: ATCC 700603, 24 h
# Outline: as §1
# [9] = test system: Pseudomonas aeruginosa ATCC 9027; type: cell-based; conditions: ATCC 9027, 24 h
# Outline: as §1
# [10] = test system: Staphylococcus aureus ATCC 25923; type: cell-based; conditions: ATCC 25923, 24 h
# Outline: as §1
SMILES,CAC [1],Surface Tension at CAC [1],HC50 [2],IC50 [3],MBEC Candida albicans ATCC 10231 [4],MBEC Candida glabrata ATCC 15126 [5],MBEC Enterococcus faecium ATCC 700221 [6],MBEC Klebsiella aerogenes ATCC 13048 [7],MBEC Klebsiella pneumoniae ATCC 700603 [8],MBEC Pseudomonas aeruginosa ATCC 9027 [9],MBEC Staphylococcus aureus ATCC 25923 [10]
CCCCCCCCCCCCCC(=O)N[C@@H](CCCNC(=N)N)C(=O)N[C@@H](CCCNC(=N)N)C(=O)NCCCC[C@H](NC(=O)[C@H](CCCNC(=N)N)NC(=O)[C@H](CCCNC(=N)N)NC(=O)CCCCCCCCCCCCC)C(N)=O [Compound B4] (Myristoyl-Arg-Arg-Lys([Arg-Arg-Myristoyl])-NH2),0.31 mM and 365.7 μg/mL,40 mN/m,44.12 ± 4.70 µg/mL,32.39 ± 4.49 µg/mL,64 µg/mL,64 µg/mL,64 µg/mL,256 µg/mL,512 µg/mL,>512 µg/mL,256 µg/mL
CCCCCCCCCCCC(=O)N[C@@H](CCCNC(=N)N)C(=O)N[C@@H](CCCNC(=N)N)C(=O)NCCCC[C@H](NC(=O)[C@H](CCCNC(=N)N)NC(=O)[C@H](CCCNC(=N)N)NC(=O)CCCCCCCCCCC)C(N)=O [Compound B3] (Lauroyl-Arg-Arg-Lys([Arg-Arg-Lauroyl])-NH2),0.87 mM and 987.3 μg/mL,41 mN/m,56.29 ± 6.50 µg/mL,26.42 ± 4.24 µg/mL,32 µg/mL,64 µg/mL,16 µg/mL,128 µg/mL,128 µg/mL,512 µg/mL,64 µg/mL
